In patent US12343326B2, “Psychoactive medicines and their use for treating psychiatric and neurological conditions and disorders” (Transcend Therapeutics, Inc., priority 2021, dated 2025):

Legend:
5HT5A = target: T1, 5HT5A (Homo sapiens, UniProt P47898); assay: GPCRmax screen, agonist mode; type: cell-based
T1 construct: beta-galactosidase enzyme fragment (PathHunter complementation tag); host or cells: PathHunter cell lines

5HT2C receptor [1] = target: T2, 5HT2C receptor (Homo sapiens, UniProt P28335); assay: GPCRmax screen, agonist mode; type: cell-based
T2 construct: beta-galactosidase enzyme fragment (PathHunter complementation tag); host or cells: PathHunter cell lines
T2 sequence (P28335 33-458): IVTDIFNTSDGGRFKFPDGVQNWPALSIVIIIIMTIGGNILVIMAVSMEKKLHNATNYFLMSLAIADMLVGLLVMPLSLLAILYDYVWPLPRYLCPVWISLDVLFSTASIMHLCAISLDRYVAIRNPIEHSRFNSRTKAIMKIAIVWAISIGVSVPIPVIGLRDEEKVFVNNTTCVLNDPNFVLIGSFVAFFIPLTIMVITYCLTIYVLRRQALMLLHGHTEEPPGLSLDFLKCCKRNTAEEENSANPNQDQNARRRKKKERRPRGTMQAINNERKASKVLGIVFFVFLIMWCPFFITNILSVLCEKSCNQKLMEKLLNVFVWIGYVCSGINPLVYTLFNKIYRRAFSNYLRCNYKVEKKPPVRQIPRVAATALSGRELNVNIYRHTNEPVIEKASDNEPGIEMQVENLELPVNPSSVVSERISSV

[2] = tested on: rats with reserpine-induced pain sensitivity; assay: Reserpine-induced fibromyalgia model, von Frey test; type: in vivo, rat; conditions: methylone 15 mg/kg IP, 30 min before testing, day 4 after reserpine
Protocol: Reserpine (1 mg/kg/s.c.) is administered for 3 days to mimic chronic widespread pain and complex symptoms.
In this Example, male Sprague Dawley rats are tested in a behavioral model of FMA based on the protocol from Nakagura et al. (2009) Pain 146:26. This model uses three daily doses of reserpine (1 mg/kg, SC) or 0.5% acetic acid vehicle to reduce pain thresholds (i.e., increase pain perception) in the Von Frey Test (vFT, procedure outlined below).
Von Frey Test (vFT) procedure: Increasing pain thresholds in this test are consistent with a reduction in pain perception. Prior to the start of dosing, rats are tested for their baseline mechanical pain threshold. For von Frey measurements, animals are placed into wire bottom cubicles with opaque Plexiglas walls, allowing access to the underside of their paws. Animals are habituated to this environment for at least 30 minutes before the start of the von Frey filament application. Static allodynia is measured using Semmes-Weinstein von Frey filaments (Stoelting, Wood Dale, IL). Mechanical allodynia is tested by touching the plantar surface of the animals' left and right hind paws with von Frey filaments which deliver a calibrated amount of force. Each von Frey filament is presented perpendicularly to the plantar surface for approximately 6 seconds of constant application in either ascending or descending strength in a modified up-and-down method (Chaplan et al. (1994) J Neurosci. Meth. 53:55). Stimulation is presented at intervals of several seconds, allowing for apparent resolution of any behavioral responses to previous stimuli. A positive response is noted if the paw is sharply withdrawn. Flinching immediately upon removal of the hair is also considered a positive response. […]
VonFrey measurements: Animals were placed into wire bottom cubicles with opaque Plexiglas walls, allowing access to the underside of their paws. […] Static allodynia was measured using Semmes-Weinstein von Frey filaments (Stoelting, Wood Dale, IL). […] The average hindpaw thresholds were determined 60-min post-injection. […]

5HT2C receptor [3] = target: T2, 5HT2C receptor; assay: GPCRmax screen, antagonist mode; type: cell-based

T1 sequence (P47898 whole entry, the tested form may be a part): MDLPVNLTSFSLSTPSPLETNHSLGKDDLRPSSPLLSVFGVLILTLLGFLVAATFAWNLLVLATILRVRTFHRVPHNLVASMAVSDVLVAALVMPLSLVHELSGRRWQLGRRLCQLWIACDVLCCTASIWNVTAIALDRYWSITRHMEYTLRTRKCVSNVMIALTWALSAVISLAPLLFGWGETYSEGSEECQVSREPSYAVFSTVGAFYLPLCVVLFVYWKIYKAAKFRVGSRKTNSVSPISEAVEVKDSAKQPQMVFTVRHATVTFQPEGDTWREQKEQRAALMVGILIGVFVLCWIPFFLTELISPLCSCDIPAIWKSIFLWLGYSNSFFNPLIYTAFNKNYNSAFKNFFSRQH

For CNC(C)C(=O)c1ccc2c(c1)OCO2 (stereo not shown) [methylone, 3,4-methylenedioxy-N-methylcathinone], the “agonist % activity, greatest activity detected” value (5HT5A; 1 or 10 mM, threshold 30%) was 13.9%, the activity at 10 µM (5HT5A; HTR5A, Agonist mode, 10 uM) was 13.9% and the activity at 1 µM (5HT5A; HTR5A, Agonist, 1 uM) was 13.6%. For the same compound, the agonist % activity (5HT2C receptor [1]; 1 or 10 mM, threshold 30%) was “no agonist or antagonist activity”, the activity at 10 µM (5HT2C receptor [1]; HTR2C, Agonist mode, 10 uM) was 3.7% and the activity at 1 µM (5HT2C receptor [1]; HTR2C, Agonist, 1 uM) was 1.4%. The “paw withdrawal thresholds (von Frey)” value [2] was “significantly increased paw withdrawal thresholds”, the “antagonist activity (% inhibition)” value (5HT2C receptor [3]; 1 or 10 mM, threshold 50%) was “no agonist or antagonist activity” and the activity at 10 µM (5HT2C receptor [3]; HTR2C, Antagonist mode, 10 uM) was 24.2%. For the same compound, the activity at 1 µM (5HT2C receptor [3]; HTR2C, Antagonist, 1 uM) was 21.1%.
